This is an account of results in patent publication US10780090B2, “Heteroaryl compounds useful as inhibitors of SUMO activating enzyme” (Millennium Pharmaceuticals, Inc., priority 2014, dated 2020).

In the assay the target is recombinant human SAE enzyme (Homo sapiens (Human), UniProt Q9UBT2). The assay can be described thus: SAE HTRF enzyme assay. The settings on record: for Percent Inhibition: Concentration 0.111 μM; for IC50: class symbols A/B/C. The class given is biochemical. How it is done:
Example 215: SAE HTRF enzyme assay
The SAE enzymatic reaction totals 50 μl and contains 50 mM HEPES Hemisodium (pH 7.5), 0.05% BSA, 5 mM MgCl2, 0.5 μM ATP, 250 μM GSH, 0.01 μM Ubc9-GST, 0.125 μM Sumo-Flag and 0.11 nM recombinant human SAE enzyme. The enzymatic reaction mixture, with and without inhibitor, Is incubated at 24° C. for 105 min in a 384-well plate before termination with […] of Stop/Detection buffer (0.1M HEPES Hemisodium pH 7.5, 0.05% Tween20, 20 mM EDTA, 410 mM KF, 0.53 nM Europium-Cryptate labeled monoclonal anti-Flag M2 Antibody (CisBio International) and 8.125 μg/ml PHYCOLINK goat anti-GST allophycocyanin (XL-APC) antibody (Prozyme)). After incubation for 2 hours at 24° C., quantification of FRET is performed on the Pherostar™ (BMG Labtech). Percentage inhibition values at a single concentration or enzyme inhibition (IC50) values are determined from those curves. One skilled in the art will appreciate that the values generated either as percentage inhibition at a single concentration or IC50 values are subject to experimental variation.
Background: TR-FRET usually uses a lanthanide donor and a delayed reading to cut background.

recombinant human SAE enzyme, sequence (Q9UBT2 whole entry): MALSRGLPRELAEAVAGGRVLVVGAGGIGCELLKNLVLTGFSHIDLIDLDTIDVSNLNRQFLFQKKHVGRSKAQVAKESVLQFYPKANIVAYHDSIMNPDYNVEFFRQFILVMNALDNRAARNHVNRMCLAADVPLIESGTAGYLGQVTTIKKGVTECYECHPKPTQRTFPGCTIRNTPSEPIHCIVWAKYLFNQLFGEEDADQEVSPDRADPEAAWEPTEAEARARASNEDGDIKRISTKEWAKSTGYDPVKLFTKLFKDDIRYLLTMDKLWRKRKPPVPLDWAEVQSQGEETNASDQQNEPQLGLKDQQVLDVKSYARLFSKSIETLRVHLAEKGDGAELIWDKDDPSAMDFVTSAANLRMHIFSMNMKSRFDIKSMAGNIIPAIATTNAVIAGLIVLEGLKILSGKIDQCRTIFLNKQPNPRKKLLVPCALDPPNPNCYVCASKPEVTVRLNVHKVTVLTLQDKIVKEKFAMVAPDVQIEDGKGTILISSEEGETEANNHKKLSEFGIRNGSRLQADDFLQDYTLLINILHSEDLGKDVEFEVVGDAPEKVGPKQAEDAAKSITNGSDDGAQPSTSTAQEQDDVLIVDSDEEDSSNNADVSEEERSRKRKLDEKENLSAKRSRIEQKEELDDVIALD
recombinant human SAE enzyme, sequence (Q9UBE0 whole entry partner): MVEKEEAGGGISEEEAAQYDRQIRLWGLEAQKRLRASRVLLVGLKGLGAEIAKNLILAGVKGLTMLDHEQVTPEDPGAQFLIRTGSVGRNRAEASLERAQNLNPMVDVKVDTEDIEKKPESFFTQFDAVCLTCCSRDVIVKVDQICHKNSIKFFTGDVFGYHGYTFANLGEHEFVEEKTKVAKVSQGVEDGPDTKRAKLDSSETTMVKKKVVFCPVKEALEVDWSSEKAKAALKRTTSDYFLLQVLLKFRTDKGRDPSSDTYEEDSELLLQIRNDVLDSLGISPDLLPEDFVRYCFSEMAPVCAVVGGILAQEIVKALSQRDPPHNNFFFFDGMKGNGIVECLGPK

One may read the IC50 as the concentration that inhibits the measured activity by half. For the molecule `C[C@](O)(c1csc(C(=O)c2cncnc2N[C@@H]2C[C@H](COS(N)(=O)=O)[C@@H](O)[C@H]2O)c1)c1cccc(Br)n1` (mixture of isomers) [I-1, [(1R,2R,3S,4R)-4-{[5-({4-[(1S)-1-(6-bromopyridin-2-yl)-1-hydroxyethyl]-2-thienyl}carbonyl)pyrimidin-4-yl]amino}-2,3-dihydroxycyclopentyl]methyl sulfamate and [(1R,2R,3S,4R)-4-({[5-({4-[(1R)-1-(6-bromopyridin-2-yl)-1-hydroxyethyl]-2-thienyl}carbonyl)pyrimidin-4-yl]amino}-2,3-dihydroxycyclopentyl]methyl sulfamate], the “Percent Inhibition” value is 99 and the IC50 was < 10 nM.

As to `C[C@@](O)(c1cccc(Br)c1)c1csc(C(=O)c2cncnc2N[C@@H]2C[C@H](COS(N)(=O)=O)[C@@H](O)C2)c1.C[C@](O)(c1cccc(Br)c1)c1csc(C(=O)c2cncnc2N[C@@H]2C[C@H](COS(N)(=O)=O)[C@@H](O)C2)c1` (mixture of isomers) [I-3, [(1R,2S,4R)-4-{[5-({4-[(1S)-1-(3-Bromophenyl)-1-hydroxyethyl]-2-thienyl}carbonyl)pyrimidin-4-yl]amino}-2-hydroxycyclopentyl]methyl sulfamate and [(1R,2S,4R)-4-{[5-({4-[(1R)-1-(3-Bromophenyl)-1-hydroxyethyl]-2-thienyl}carbonyl)pyrimidin-4-yl]amino}-2-hydroxycyclopentyl]methyl sulfamate], the “Percent Inhibition” value came to 100 and the IC50 is < 10 nM.

`NS(=O)(=O)OC[C@H]1C[C@@H](Nc2ncncc2C(=O)c2cc([C@H](O)c3cccc(Cl)c3)cs2)C[C@@H]1O` (mixture of isomers) [I-4, [(1R,2S,4R)-4-{[5-({4-[(R)-(3-chlorophenyl)(hydroxy)methyl]-2-thienyl}carbonyl)pyrimidin-4-yl]amino}-2-hydroxycyclopentyl]methyl sulfamate and [(1R,2S,4R)-4-{[5-({4-[(S)-(3-chlorophenyl)(hydroxy)methyl]-2-thienyl}carbonyl)pyrimidin-4-yl]amino}-2-hydroxycyclopentyl]methyl sulfamate]: the “Percent Inhibition” value stood at 99 and the IC50 was < 10 nM.

For the molecule `CC(O)(c1cccc(Cl)c1)c1csc(C(=O)c2cncnc2NC2CC(O)C(COS(N)(=O)=O)C2)c1` (mixture of isomers) [I-5, [(1R,2S,4R)-4-{[5-({4-[(1R)-1-(3-chlorophenyl)-1-hydroxyethyl]-2-thienyl}carbonyl)pyrimidin-4-yl]amino}-2-hydroxycyclopentyl]methyl sulfamate and [(1R,2S,4R)-4-{[5-({4-[(1S)-1-(3-chlorophenyl)-1-hydroxyethyl]-2-thienyl}carbonyl)pyrimidin-4-yl]amino}-2-hydroxycyclopentyl]methyl sulfamate], the “Percent Inhibition” value was 99 and the 50% inhibitory concentration (IC50) was < 10 nM.

On to `Cc1sc(C(=O)c2cncnc2NC2CC(O)C(COS(N)(=O)=O)C2)cc1C(N)c1cccc(Cl)c1` (mixture of isomers) [I-6, [(1R,2S,4R)-4-{[5-({4-[(R)-amino(3-chlorophenyl)methyl]-5-methyl-2-thienyl}carbonyl)pyrimidin-4-yl]amino}-2-hydroxycyclopentyl]methyl sulfamate and [(1R,2S,4R)-4-{[5-({4-[(S)-amino(3-chlorophenyl)methyl]-5-methyl-2-thienyl}carbonyl)pyrimidin-4-yl]amino}-2-hydroxycyclopentyl]methyl sulfamate], for which the “Percent Inhibition” value was 98 and the IC50 was < 10 nM.

Turning to `Cc1sc(C(=O)c2cncnc2NC2CC(O)C(COS(N)(=O)=O)C2)cc1C(O)c1cccc(Cl)c1` (mixture of isomers) [I-11, [(1R,2S,4R)-4-{[5-({4-[(R)-(3-chlorophenyl)(hydroxy)methyl]-5-methyl-2-thienyl}carbonyl)pyrimidin-4-yl]amino}-2-hydroxycyclopentyl]methyl sulfamate and [(1R,2S,4R)-4-{[5-({4-[(S)-(3-chlorophenyl)(hydroxy)methyl]-5-methyl-2-thienyl}carbonyl)pyrimidin-4-yl]amino}-2-hydroxycyclopentyl]methyl sulfamate], the “Percent Inhibition” value is 99 and the IC50 is < 10 nM.

For `CC(N)(c1cccc(Cl)c1)c1csc(C(=O)c2cncnc2NC2CC(O)C(COS(N)(=O)=O)C2)c1` (mixture of isomers) [I-12, [(1R,2S,4R)-4-{[5-({4-[(1S)-1-amino-1-(3-chlorophenyl)ethyl]-2-thienyl}carbonyl)pyrimidin-4-yl]amino}-2-hydroxycyclopentyl]methyl sulfamate and [(1R,2S,4R)-4-{[5-({4-[(1R)-1-amino-1-(3-chlorophenyl)ethyl]-2-thienyl}carbonyl)pyrimidin-4-yl]amino}-2-hydroxycyclopentyl]methyl sulfamate], the “Percent Inhibition” value was found to be 99 and the IC50 is < 10 nM.

Turning to `NS(=O)(=O)OCC1CC(Nc2ncncc2C(=O)c2cc(C(O)c3cccc(Cl)c3)c(CO)s2)CC1O` (mixture of isomers) [I-13, [(1R,2S,4R)-4-{[5-({4-[(R)-(3-chlorophenyl)(hydroxy)methyl]-5-(hydroxymethyl)-2-thienyl}carbonyl)pyrimidin-4-yl]amino}-2-hydroxycyclopentyl]methyl sulfamate and [(1R,2S,4R)-4-{[5-({4-[(S)-(3-chlorophenyl)(hydroxy)methyl]-5-(hydroxymethyl)-2-thienyl}carbonyl)pyrimidin-4-yl]amino}-2-hydroxycyclopentyl]methyl sulfamate], the “Percent Inhibition” value was determined as 100 and the IC50 is < 10 nM.

As to `NC(c1cccc(Cl)c1)c1cc(C(=O)c2cncnc2NC2CC(O)C(COS(N)(=O)=O)C2)sc1Cl` (mixture of isomers) [I-15, [(1R,2S,4R)-4-{[5-({4-[(R)-amino(3-chlorophenyl)methyl]-5-chloro-2-thienyl}carbonyl)pyrimidin-4-yl]amino}-2-hydroxycyclopentyl]methyl sulfamate and [(1R,2S,4R)-4-{[5-({4-[(S)-amino(3-chlorophenyl)methyl]-5-chloro-2-thienyl}carbonyl)pyrimidin-4-yl]amino}-2-hydroxycyclopentyl]methyl sulfamate], the “Percent Inhibition” value turned out to be 100 and the IC50 was < 10 nM.

In the case of `NS(=O)(=O)OCC1CC(Nc2ncncc2C(=O)c2cc(C(O)c3cccc(Br)c3)cs2)CC1O` (mixture of isomers) [I-17, [(1R,2S,4R)-4-{[5-({4-[(R)-(3-bromophenyl)(hydroxy)methyl]-2-thienyl}carbonyl)pyrimidin-4-yl]amino}-2-hydroxycyclopentyl]methyl sulfamate and [(1R,2S,4R)-4-{[5-({4-[(S)-(3-bromophenyl)(hydroxy)methyl]-2-thienyl}carbonyl)pyrimidin-4-yl]amino}-2-hydroxycyclopentyl]methyl sulfamate], the “Percent Inhibition” value is on record as 99 and the IC50 was < 10 nM.

Regarding `NC(c1cccc(Br)n1)c1cc(C(=O)c2cncnc2NC2CC(O)C(COS(N)(=O)=O)C2)sc1Cl` (mixture of isomers) [I-18, [(1R,2S,4R)-4-{[5-({4-[(R)-amino(6-bromopyridin-2-yl)methyl]-5-chloro-2-thienyl}carbonyl)pyrimidin-4-yl]amino}-2-hydroxycyclopentyl]methyl sulfamate and [(1R,2S,4R)-4-{[5-({4-[(S)-amino(6-bromopyridin-2-yl)methyl]-5-chloro-2-thienyl}carbonyl)pyrimidin-4-yl]amino}-2-hydroxycyclopentyl]methyl sulfamate], the “Percent Inhibition” value is reported as 99 and the IC50 was < 10 nM.

For `NS(=O)(=O)OCC1CC(Nc2ncncc2C(=O)c2cc(C(O)c3cc(Br)ccc3F)cs2)CC1O` (mixture of isomers) [I-19, [(1R,2S,4R)-4-{[5-({4-[(R)-(5-bromo-2-fluorophenyl)(hydroxy)methyl]-2-thienyl}carbonyl)pyrimidin-4-yl]amino}-2-hydroxycyclopentyl]methyl sulfamate and [(1R,2S,4R)-4-{[5-({4-[(S)-(5-bromo-2-fluorophenyl)(hydroxy)methyl]-2-thienyl}carbonyl)pyrimidin-4-yl]amino}-2-hydroxycyclopentyl]methyl sulfamate], the “Percent Inhibition” value turned out to be 100 and the IC50 is < 10 nM.

Regarding `NC(c1cccc(Br)c1)c1cc(C(=O)c2cncnc2NC2CC(O)C(COS(N)(=O)=O)C2)sc1Cl` (mixture of isomers) [I-22, [(1R,2S,4R)-4-{[5-({4-[(R)-amino(3-bromophenyl)methyl]-5-chloro-2-thienyl}carbonyl)pyrimidin-4-yl]amino}-2-hydroxycyclopentyl]methyl sulfamate and [(1R,2S,4R)-4-{[5-({4-[(S)-amino(3-bromophenyl)methyl]-5-chloro-2-thienyl}carbonyl)pyrimidin-4-yl]amino}-2-hydroxycyclopentyl]methyl sulfamate], the “Percent Inhibition” value came to 99 and the IC50 is < 10 nM.
